Measured values taken from article PMC10463376, “Design, synthesis, in vitro anticancer, molecular docking and SAR studies of new series of pyrrolo[2,3-d]pyrimidine derivatives” (BMC Chemistry, 2023).
Values after ≈ are worked out from the molar mass of the structure shown. “Also recorded” adds a separate entry of the source. Like-named read-outs stand apart in the source and are kept apart here.

Experiments:
[1] = system: IL-8; experiment: RT-qPCR IL-8 mRNA in MCF7; assay type: cell-based, human; details: MCF7, vs negative control
Protocol: (§1) All of the extractions were conducted on ice with ice-cold reagents. Total RNA from the different cell lines was isolated using Trizol (Invitrogen; Life Technologies, USA) according to the method of Sthoeger et al.. The 260:280 ratios were measured to determine RNA quality after the isolation method was completed according to the manufacturer’s instructions. A high-capacity cDNA reverse transcription kit was used to produce complementary DNA (cDNA) (Applied Biosystems, USA). […] The relative gene expression method (i.e., ΔΔCT) was used to analyze the real-time PCR data, as explained in Applied Biosystem User Bulletin No. 2. Each sample and gene were normalized using the β-actin gene.

[2] = system: DR4; experiment: RT-qPCR DR4 mRNA in MCF7; assay type: cell-based, human; details: MCF7, vs negative control
Protocol: as §1

[3] = system: DR5; experiment: RT-qPCR DR5 mRNA in Paca2; assay type: cell-based, human; details: 17 vs both Dox. and negative control
Protocol: as §1

[4] = system: DR4; experiment: RT-qPCR DR4 mRNA in A549; assay type: cell-based, human
Protocol: as §1

[5] = system: PC3 prostate cancer cells; experiment: MTT assay, PC3; details: 72 h; for IC50 / cytotoxicity at 100 µg/mL: Homo sapiens; for IC50: read-out: IC50 PC3
From the text: All of the following steps were done in a sterile Laminar flow class II biosafety cabinet (Baker, SG406INT, Sanford, ME, USA). DMEM was used as a suspension medium for breast cancer (MCF7), colorectal cancer (HCT116), prostate cancer (PC3), liver cancer (HePG2), pancreatic cancer (PACA2) and lung cancer (A549), while normal cell line (BJ1) was suspended in DMEM-F12 medium. The selected cell lines were purchased from American Type Culture Collection (ATCC). The media were supplemented with a 1% antimycotic-antibiotic mixture (10,000 µg/ml streptomycin sulfate, 25 µg/ml Amphotericin B, and 10,000 U/ml Potassium Penicillin) and 1% L-glutamine. 10 × 10^4cells/well were seeded in 96 well microtiter plates and incubated for 24 h at 37 ℃ under 5% carbon dioxide using a water-jacketed Carbon dioxide incubator (Sheldon, SCO5A, OR, USA). […] After the incubation time of 72 h, the medium was removed. Afterward, 40 µl MTT salt ([…]) was added to each well and kept for 4 h under the same conditions of 37 °C and 5% carbon dioxide. Finally, 200 μl of 10% Sodium dodecyl sulfate (SDS) in deionized water was added to each well and incubated overnight at 37 °C. The step of SDS addition was done to stop the reaction and dissolve the formed formazan crystals. The absorbance was then measured at a wavelength of 595 nm and the reference wavelength was set at 620 nm using a microplate multi-well reader (Bio-Rad Laboratories Inc., model 3356, California, USA). […] A statistical significance analysis was determined between the samples and the negative control using an independent t-test by SPSS 11 program. Dimethyl sulfoxide (DMSO) was the vehicle that dissolved our synthesized compounds and its concentration in the cells was less than 0.2%. IC50 values were calculated using the GraphPad Prism 6 program. The degree of selectivity of the synthetic compounds was expressed as SI = IC50 of a pure compound in a normal cell line/IC50 of the same pure compound in the cancer cell line, where IC50 is the concentration of the compound required to kill 50% of the cells.

[6] = system: BAX; experiment: RT-qPCR BAX mRNA in MCF7; assay type: cell-based, human; details: MCF7, vs negative control
Protocol: as §1

[7] = system: Bcl-2; experiment: RT-qPCR Bcl-2 mRNA in MCF7; assay type: cell-based, human; details: MCF7, vs negative control
Protocol: as §1

[8] = system: Casp-3; experiment: RT-qPCR Casp-3 mRNA in A549; assay type: cell-based, human
Protocol: as §1

[9] = system: CDK4; experiment: RT-qPCR CDK4 mRNA in MCF7; assay type: cell-based, human; details: MCF7, vs negative control
Protocol: as §1

[10] = system: CDK4; experiment: RT-qPCR CDK4 mRNA in Paca2; assay type: cell-based, human; details: 17 vs both Dox. and negative control
Protocol: as §1

[11] = system: Bcl-2; experiment: RT-qPCR Bcl-2 mRNA in Paca2; assay type: cell-based, human; details: 17 vs both Dox. and negative control
Protocol: as §1

[12] = system: P53; experiment: RT-qPCR P53 mRNA in Paca2; assay type: cell-based, human; details: 17 vs both Dox. and negative control
Protocol: as §1

[13] = system: IL-8; experiment: RT-qPCR IL-8 mRNA in Paca2; assay type: cell-based, human; details: 17 vs both Dox. and negative control
Protocol: as §1

[14] = system: MCF7 cells; experiment: Annexin V-FITC/PI apoptosis flow cytometry, MCF7; assay type: cell-based, human; details: for percentage of late apoptotic cells (Q1-UR) / percentage of necrotic cells (Q1-UL) / percentage of early apoptotic cells (Q1-LR): MCF7, 24 h, IC50; for percentage of late apoptotic cells (Q1-UR): control 0.41%; for percentage of necrotic cells (Q1-UL): control 1.01%; for percentage of early apoptotic cells (Q1-LR): control 7.8%; for induction of apoptotic death: MCF7 cells
Protocol: The percentage of apoptotic cells was detected by using Annexin V-FITC kit catalog number (#K101-25). About 2X10^6 of MCF7 and Paca2 cells were washed in 500 µl of 1 × PBS. Then, the cells were centrifuged and the supernatant was discarded. The cells pellet were re-suspended in the annexin V incubation reagent. The annexin V incubation reagent contained 10 μl binding buffer (10 ×), 10 μl propidium iodide, 1 μl annexin V-FITC, and 79 μl deionized water. The cells were incubated in 100 μl annexin V incubation reagent for 15 min in the dark at room temperature. Finally, the apoptotic cell percentage was detected by flow cytometry using the FITC signal detector (usually FL-1) and PI staining by the phycoerythrin emission signal detector (usually FL-2).

[15] = system: BAX; experiment: ELISA BAX in MCF7 cells; assay type: cell-based, human; details: MCF7 cells treated with IC50; untreated control 4.92
From the text: (§2) Elisa assay was used to determine the concentrations of Human caspases-3, -8, Bax, and Bcl2 in PACA2- and A549-treated cells. Also, the concentrations of caspase-8, Bax, and Bcl2 in MCF7-treated cells were detected. The procedures were followed up according to the instructions described in the following kits; Invitrogen human Caspase-3 Elisa Kit, Catalog KHO1091, DRG® human Caspase-8 ELISA Kit, Catalog (EIA-4863), Human Bax ELISA Kit (ab199080) and Human Bcl-2 ELISA Kit (ab119506) respectively. Shortly, the protocol described in the above kits was as followed; at the beginning, all the reagents, samples and standards were prepared. 100 μl of samples or standard were micro pipetted to each well of micro-well strip and kept at room temperature for 2 h. After washing the micro-well strips three times with washing buffer, the prepared antibody (anti-rabbit-IgG-HRP) at a concentration of 100 μl was added to each well at room temperature for 1 h. Then, the micro-well strips were washed again three times. Afterward, the prepared tetramethyl-benzidine (TMB) solution (100 μl) was added to the micro-well strips and kept for 10 min. At last, about 50 μl of stop solution was pipetted to each well to inactivate the enzyme completely. The absorbance of all samples was measured at a wavelength of 460 nm and compared to that of the standard. Curve fitting software was used to plot a standard curve and the concentrations for the unknown samples were measured from the standard curve.

[16] = system: Bcl2; experiment: ELISA Bcl2 in MCF7 cells; assay type: cell-based, human; details: MCF7 cells treated with IC50; untreated control 14.37
From the text: as §2

[17] = system: caspase 8; experiment: ELISA caspase 8 in MCF7 cells; assay type: cell-based, human; details: MCF7 cells treated with IC50; untreated control 3.99
From the text: as §2

[18] = read-out: MTT cell proliferation mortality assay (%) PC3, at 100 μg/ml, 72 h

| Structure (SMILES) | IL-8 mRNA level [1] | DR4 mRNA level [2] | IC50 [5] | BAX mRNA level [6] | Bcl-2 mRNA level [7] | CDK4 mRNA level [9] | cytotoxicity at 100 µg/mL [5, 18] | BAX level (ELISA) [15] | Bcl2 level (ELISA) [16] | caspase 8 level (ELISA) [17] | further results |
| --- | --- | --- | --- | --- | --- | --- | --- | --- | --- | --- | --- |
| COc1cccc2c1C(=O)c1c(O)c3c(c(O)c1C2=O)C[C@@](O)(C(=O)CO)C[C@@H]3O[C@H]1C[C@H](N)[C@H](O)[C@H](C)O1 [Dox, Doxorubicin, reference compound] | lowered | increased | 23.8 ± 0.2 µg/mL (≈ 43.8 µM) | up-regulated | down-regulated | lowered |  |  |  |  | DR5 mRNA level [3]: no significant difference; DR4 mRNA level [4]: up-regulated; cytotoxicity at 100 µg/mL ([5]; read-out: MTT cell proliferation mortality assay (%) PC3): 100%; Casp-3 mRNA level [8]: up-regulated; CDK4 mRNA level [10]: no significant difference; Bcl-2 mRNA level [11]: no significant difference; P53 mRNA level [12]: no significant difference; IL-8 mRNA level [13]: no significant difference |
| COc1ccc(-c2c(Cl)n(-c3ccc(Cl)cc3Cl)c3ncnc(Cl)c23)cc1OC [Compound 4b, 4,6-dichloro-7-(2,4-dichlorophenyl)-5-(3,4-dimethoxyphenyl)-7H-pyrrolo[2,3-d]pyrimidine] |  |  | 28.5 ± 0.8 µg/mL (≈ 60.7 µM) |  |  |  | 100% |  |  |  | DR4 mRNA level [4]: up-regulated; Casp-3 mRNA level [8]: up-regulated |
| CN1CCN(c2nc(C(Cl)(Cl)Cl)nc3c2c(-c2ccc(Br)cc2)c(Cl)n3-c2ccc(Cl)cc2Cl)CC1 [Compound 17, 5-(4-bromophenyl)-6-chloro-7-(2,4-dichlorophenyl)-4-(4-methylpiperazin-1-yl)-2-(trichloromethyl)-7H-pyrrolo[2,3-d]pyrimidine] |  |  | 66.8 ± 2 µg/mL (≈ 99.8 µM) |  |  |  | 80 to 90% |  |  |  | DR5 mRNA level [3]: up-regulated; cytotoxicity ([5]; read-out: MTT cell proliferation mortality assay (%) PC3, at 100 μg/ml): 79.5 ± 0.5%; CDK4 mRNA level [10]: lowered; Bcl-2 mRNA level [11]: down-regulated; P53 mRNA level [12]: up-regulated; IL-8 mRNA level [13]: lowered |
| COc1ccc(-c2c(Cl)n(-c3ccc(Cl)cc3Cl)c3ncnc(N4CCN(C)CC4)c23)cc1OC [Compound 16b, 6-chloro-7-(2,4-dichlorophenyl)-5-(3,4-dimethoxyphenyl)-4-(4-methylpiperazin-1-yl)-7H-pyrrolo[2,3-d]pyrimidine] | lowered | increased |  | up-regulated | down-regulated | lowered |  | 13.25 pg/mL | 4.25 pg/mL | 14.72 pg/mL | percentage of late apoptotic cells (Q1-UR) [14]: 1.7%; percentage of necrotic cells (Q1-UL) [14]: 0.96%; percentage of early apoptotic cells (Q1-LR) [14]: 11.49%; induction of apoptotic death [14]: induced the apoptotic death |
| COc1ccc(-c2c(Cl)n(-c3ccc(Cl)cc3Cl)c3ncnc(N4CCOCC4)c23)cc1OC [Compound 18b, 4-(6-chloro-7-(2,4-dichlorophenyl)-5-(3,4-dimethoxyphenyl)-7H-pyrrolo[2,3-d]pyrimidin-4-yl)morpholine] | lowered; also recorded: down-regulated | increased; also recorded: up-regulated | 19.2 ± 0.9 µg/mL (≈ 36.9 µM) | up-regulated | down-regulated | lowered; also recorded: down-regulated | 100% | 7.25 pg/mL | 9.24 pg/mL | 10.29 pg/mL | percentage of late apoptotic cells (Q1-UR) [14]: 0.89%; percentage of necrotic cells (Q1-UL) [14]: 0.76%; percentage of early apoptotic cells (Q1-LR) [14]: 20.63%; induction of apoptotic death [14]: induced the apoptotic death |
| COc1ccc(-c2c(Cl)n(-c3ccc(Cl)cc3Cl)c3ncnc(NN)c23)cc1OC [Compound 14b, 6-chloro-7-(2,4-dichlorophenyl)-5-(3,4-dimethoxyphenyl)-4-hydrazineyl-7H-pyrrolo[2,3-d]pyrimidine] | lowered; also recorded: down-regulated | increased; also recorded: up-regulated | 18.7 ± 0.2 µg/mL (≈ 40.2 µM) | up-regulated | down-regulated | lowered; also recorded: down-regulated | 100% | 14.25 pg/mL | 8.25 pg/mL | 18.263 pg/mL |  |
| NNc1ncnc2c1c(-c1ccc(Br)cc1)c(Cl)n2-c1ccc(Cl)cc1Cl [Compound 14a, 5-(4-bromophenyl)-6-chloro-7-(2,4-dichlorophenyl)-4-hydrazineyl-7H-pyrrolo[2,3-d]pyrimidine] | lowered; also recorded: down-regulated | increased; also recorded: up-regulated |  | up-regulated | down-regulated | lowered; also recorded: down-regulated |  | 9.99 pg/mL | 2.4 pg/mL | 8.76 pg/mL |  |
